# Assays:
# [1] = target: Metabotropic glutamate receptor 3 (Rattus norvegicus, UniProt P31422); test: Negative allosteric modulator activity at rat mGluR3 receptor by TI flux assay-based fluorescence analysis
# [2] = target: Metabotropic glutamate receptor 2 (Rattus norvegicus, UniProt P31421); test: Negative allosteric modulator activity at glutamate-stimulated rat mGluR2 receptor expressed in HEK293 cells assessed as inhibition of thallium flux preincubated for 2 mins 20 secs followed by glutamate addition and measured for 2.5 mins by fluorescence based analysis; type: cell-based
# Sequence of Metabotropic glutamate receptor 2 (P31421 whole entry): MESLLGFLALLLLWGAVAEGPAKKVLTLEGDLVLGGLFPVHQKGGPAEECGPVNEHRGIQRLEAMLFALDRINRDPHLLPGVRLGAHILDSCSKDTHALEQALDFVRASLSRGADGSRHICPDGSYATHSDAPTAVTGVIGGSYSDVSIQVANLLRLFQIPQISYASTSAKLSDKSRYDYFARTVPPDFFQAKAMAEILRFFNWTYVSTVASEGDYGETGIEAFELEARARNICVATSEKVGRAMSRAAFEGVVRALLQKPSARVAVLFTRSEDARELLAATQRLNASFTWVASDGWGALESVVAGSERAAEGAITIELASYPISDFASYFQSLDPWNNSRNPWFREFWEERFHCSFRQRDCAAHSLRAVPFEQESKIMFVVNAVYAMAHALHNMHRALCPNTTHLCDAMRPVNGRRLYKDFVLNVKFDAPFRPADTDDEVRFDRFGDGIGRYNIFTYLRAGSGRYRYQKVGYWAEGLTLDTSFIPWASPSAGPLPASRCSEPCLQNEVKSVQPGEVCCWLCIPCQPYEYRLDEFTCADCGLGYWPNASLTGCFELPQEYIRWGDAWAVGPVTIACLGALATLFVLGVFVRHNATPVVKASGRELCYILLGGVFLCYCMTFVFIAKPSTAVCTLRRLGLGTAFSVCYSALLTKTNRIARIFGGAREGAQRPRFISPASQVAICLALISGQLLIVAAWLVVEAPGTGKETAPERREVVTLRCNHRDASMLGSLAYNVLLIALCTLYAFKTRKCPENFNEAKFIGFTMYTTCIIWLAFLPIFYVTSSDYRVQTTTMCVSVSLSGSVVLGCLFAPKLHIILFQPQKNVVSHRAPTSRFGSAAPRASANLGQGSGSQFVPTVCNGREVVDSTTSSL
# Sequence of Metabotropic glutamate receptor 3 (P31422 whole entry): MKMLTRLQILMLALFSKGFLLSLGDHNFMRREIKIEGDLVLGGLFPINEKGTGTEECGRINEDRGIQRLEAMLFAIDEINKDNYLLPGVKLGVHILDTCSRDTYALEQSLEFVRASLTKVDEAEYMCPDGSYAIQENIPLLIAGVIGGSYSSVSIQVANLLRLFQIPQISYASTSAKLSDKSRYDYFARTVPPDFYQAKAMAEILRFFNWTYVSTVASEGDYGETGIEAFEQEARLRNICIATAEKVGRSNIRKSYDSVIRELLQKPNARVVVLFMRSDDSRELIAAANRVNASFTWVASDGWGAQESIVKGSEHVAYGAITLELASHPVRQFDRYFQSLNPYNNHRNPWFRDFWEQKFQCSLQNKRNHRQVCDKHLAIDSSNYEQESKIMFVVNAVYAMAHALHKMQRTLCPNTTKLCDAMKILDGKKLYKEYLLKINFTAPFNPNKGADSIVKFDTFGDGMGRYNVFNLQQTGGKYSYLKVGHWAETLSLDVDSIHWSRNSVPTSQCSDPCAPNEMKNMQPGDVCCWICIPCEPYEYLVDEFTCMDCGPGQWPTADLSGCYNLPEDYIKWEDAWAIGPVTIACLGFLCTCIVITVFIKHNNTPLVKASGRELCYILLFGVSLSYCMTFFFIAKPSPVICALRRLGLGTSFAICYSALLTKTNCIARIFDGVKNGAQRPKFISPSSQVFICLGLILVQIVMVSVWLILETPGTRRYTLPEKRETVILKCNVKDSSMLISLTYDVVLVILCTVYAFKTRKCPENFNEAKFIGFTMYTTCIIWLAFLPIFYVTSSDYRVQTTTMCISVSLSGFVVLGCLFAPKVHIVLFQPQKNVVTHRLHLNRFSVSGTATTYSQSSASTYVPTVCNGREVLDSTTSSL
compound,measurement,setting,value
Cc1ccc(-c2cc3c(cc2-c2ccc(F)cc2)C(=O)NC3)cn1,IC50,[1],> 10 µM
same,IC50,[2],0.659 µM
N#Cc1cccc(-c2cc3c(cc2-c2ccc(F)cc2F)C(=O)NC3)c1F,IC50,[1],> 10 µM
Cc1ccc(-c2cc3c(cc2-c2ccc(F)cc2)C(=O)NC3)nc1,IC50,[1],> 10 µM
O=C1NCc2cc(-c3cccnc3C3CC3)c(-c3ccc(F)cc3F)cc21,IC50,[1],> 10 µM
same,IC50,[2],0.693 µM
O=C1NCc2cc(C3CCOCC3)c(-c3ccc(F)cc3)cc21,IC50,[1],> 10 µM
O=C1NCc2cc(-c3cnc4[nH]ccc4c3)c(-c3ccc(F)cc3F)cc21,IC50,[1],> 10 µM

# From ChEMBL document CHEMBL6109163, “6-Aryl Isoindolin-1-ones: Novel mGluR2 Negative Allosteric Modulators” (ACS Med Chem Lett, 2025)
